Data: patent US10149818B2 (UCB PHARMA GMBH, priority 2010, dated 2018)
Converted amounts (≈) assume the structure as drawn.

Legend:
[1] = test system: subjects with partial-onset seizures; experiment: PK-PD modeling of seizure frequency, Emax model, pooled clinical trials (Example 54); type: in vivo, human
Source text: Objectives of the PK-PD analysis were to evaluate and describe the correlation between the LCM plasma concentration over time (PK parameter) and the reduction of daily seizures over time (PD parameter) based on the pooled data from the previous clinical human trials.
The evaluation of PK-PD modeling was done based on the Emax model.
The following Table 8 summarizes the PK-PD modeling results using the Emax model.
The slope of the linear regression is equal to the mean daily number of seizures.
Based on the relative difference of the individual slopes during Titration and Maintenance Phase vs Baseline slope and the approximated AUCT,ss,m, the PK-PD evaluation was performed using a linear model, the Emax model, and the Emax 100 model. […] Finally, the Emax model had the lowest weighted sum of squares and was therefore selected as the most appropriate PK-PD model to describe the data. […] The AUC50 is defined as the AUC[…],ss that is needed in individuals to achieve 50% of the maximum effect (decrease in seizure frequency).

[2] = IR tablets twice daily; average distribution volume of 50 liters; cited from earlier work

## COC[C@@H](NC(C)=O)C(=O)NCc1ccccc1 [lacosamide, (R)-2-Acetamido-N-benzyl-3-methoxypropionamide]
[1]; 50% of the maximum effect
  decrease in partial seizure frequency at AUC50: 35%
[1]; AUC of 67 μg/mL*h (mean dose 200 mg LCM bid in a typical subject)
  decrease of seizures as % of the maximum effect: 65%
[1]; Emax model
  AUC,tau,ss corresponding to kd: 35 µg·h/mL
[1]; Homo sapiens, Emax model, plasma concentration, read-out: kd, concentration for half of the maximum effect
  EC50: 2.92 µg/mL (≈ 11.7 µM)
[1]; human, in vivo
  decrease of seizures as % of the maximum effect: 74%
[2]
  maximum dosage-normalized lacosamide steady state plasma levels (Cmax, ss, norm): 40 to 43 ng/mL/mg
